Here are results for three compounds from US20190062761A1, “ULTRASOUND METHOD” (INSTITUTE OF SCIENCE AND TECHNOLOGY AUSTRIA (IST AUSTRIA), priority 2016, published 2019).

In data set [1] the test system is light-activated gene transcription plasmid pDAWN. Description: Induction of mCherry expression by SCL and pDAWN in E. coli. Type of data set: cell-based.
Description: For starting cultures, E. coli BL21 (DE) cells transformed with pDAWN were grown overnight (225 rpm, 37° C.) in LB medium (pH 7.0; Sigma) supplemented with 50 μg/ml kanamycin (Sigma). Cells were then diluted 100-fold in fresh LB medium (pH 8.0) and growth was allowed to reach OD600˜0.4 (7.3×10^7 CFU/ml) under non-inducing conditions (i.e. in the dark). For US experiments, 250 ml of these cultures were centrifuged (4700 rpm, 5 min) and resuspended in 200 ml M9 minimal medium (1×M9 salts, 2 mM MgSO4, 0.1 mM CaCl2, 0.4% glucose, buffered with 0.05 M Tris, pH 9.0). Each culture was treated with US for 3 h. After stimulation, aliquots (50 ml) were centrifuged, resuspended (in M9 minimal media) and incubated in 96-well plates overnight under non-inducing conditions (dark) to allow mCherry maturation.
The subject of a further data set is M38K^Opto-mFGFR1 cells. Description: EMT-like morphology changes (aspect ratio) in M38K Opto-mFGFR1 cells in response to luminol SCL. Type of data set: cell-based. The procedure:
After additional 24 h, cells were photographed on the Nikon Ti300 microscope.

A further data set relates to E. coli. Particulars: treatment with US and luminol for 3 h (20 mM luminol, pH 9), M9 minimal media.

For the compound `COc1ccc(-c2cn3c(=O)c(C)nc-3c[nH]2)cc1.Cl` [MCLA, 6-(4-Methoxyphenyl)-2-methyl-3,7-dihydroimidazo[1,2-a]pyrazin-3-one Hydrochloride], in data set [1] (MCLA-catalyzed SCL, pDAWN-V28I, 2 h US stimulation, 2 μM MCLA, pH 7), the “induction of mCherry expression” value is recorded as “two”.
With `COc1cc(OC)cc(-c2cc3cnc(N)nc3nc2NC(=O)NC(C)(C)C)c1` [PD166866], the “effect of luminol SCL on cell morphology after pre-treatment with inhibitor” value in the data set with M38K^Opto-mFGFR1 cells (10 μM for 1 h before US stimulation (585 kHz, 64% amplitude, 3 h)) is “abolished”.
Turning to `Nc1cccc2c(=O)[nH][nH]c(=O)c12` [luminol, 5-Amino-2,3-dihydro-1,4-phthalazinedione], in the data set on E. coli, the “reduction of E. coli viability indicators (OD600 and CFUs)” value is recorded as about 50%. The “induction of mCherry production (increase compared to control experiments)” value in data set [1] ({}) is about 5 fold. For the same compound, the “morphological changes in M38K^Opto-mFGFR1 cells” value with M38K^Opto-mFGFR1 cells (luminol SCL, two chambers configuration, 20 mM luminol, US 585 kHz, 64% amplitude, 3 h) is listed as “induced epithelial-mesenchymal transition (EMT)-like morphological changes”.
